Results: patent US20250361230A1, “LATS Inhibitors and Uses Thereof” (The USA, as Represented by the Secretary, Dept. of Heath …, priority 2022, published 2025)
Like-named read-outs stand apart in the source and are kept apart here.

How the values were obtained:
Format in all cases: biochemical
LATS1 = biological target: T1, LATS1 (Homo sapiens, UniProt O95835); assay: RBC HotSpot kinase assay (33P-ATP, P81 filter-binding), LATS1; conditions: read-out: LATS1 IC50
T1 sequence (O95835 1-1130): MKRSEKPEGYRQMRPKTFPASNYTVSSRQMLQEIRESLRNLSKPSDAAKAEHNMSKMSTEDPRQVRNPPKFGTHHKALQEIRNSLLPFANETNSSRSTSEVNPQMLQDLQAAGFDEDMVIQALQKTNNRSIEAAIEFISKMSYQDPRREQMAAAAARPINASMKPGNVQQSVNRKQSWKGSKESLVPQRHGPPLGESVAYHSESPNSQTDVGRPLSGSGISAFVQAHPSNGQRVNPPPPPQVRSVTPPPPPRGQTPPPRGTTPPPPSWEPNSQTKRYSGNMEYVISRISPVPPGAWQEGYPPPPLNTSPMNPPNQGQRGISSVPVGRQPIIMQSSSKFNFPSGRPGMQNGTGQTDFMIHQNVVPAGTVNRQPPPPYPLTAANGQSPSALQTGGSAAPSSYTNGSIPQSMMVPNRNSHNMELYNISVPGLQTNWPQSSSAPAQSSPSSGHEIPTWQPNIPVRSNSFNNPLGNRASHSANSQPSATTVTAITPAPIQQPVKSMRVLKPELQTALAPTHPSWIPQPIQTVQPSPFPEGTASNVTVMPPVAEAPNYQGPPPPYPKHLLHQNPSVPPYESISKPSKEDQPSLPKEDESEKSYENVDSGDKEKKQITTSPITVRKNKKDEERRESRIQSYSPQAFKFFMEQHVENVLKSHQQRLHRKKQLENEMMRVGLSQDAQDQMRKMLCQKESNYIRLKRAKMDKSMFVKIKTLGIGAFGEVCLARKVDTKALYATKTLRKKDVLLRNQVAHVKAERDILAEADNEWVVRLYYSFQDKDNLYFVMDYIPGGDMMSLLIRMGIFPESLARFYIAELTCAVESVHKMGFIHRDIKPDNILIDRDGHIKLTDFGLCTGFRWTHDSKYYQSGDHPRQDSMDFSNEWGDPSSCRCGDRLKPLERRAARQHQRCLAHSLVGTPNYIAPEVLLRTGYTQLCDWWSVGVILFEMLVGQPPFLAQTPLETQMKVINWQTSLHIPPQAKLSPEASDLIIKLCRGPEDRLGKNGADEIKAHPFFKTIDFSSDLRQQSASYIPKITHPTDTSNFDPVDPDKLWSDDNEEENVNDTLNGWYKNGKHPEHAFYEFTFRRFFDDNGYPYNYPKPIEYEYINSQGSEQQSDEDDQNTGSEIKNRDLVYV
Method in brief: (§1)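 IC50 in nM was derived from 10-point, single-replicate titrations. Read-out was radiometric P81 filter binding following a 2 h room-temperature reaction with 33P-ATP, after 20 min compound preincubation.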

AKT = AKT (Homo sapiens, UniProt P31749); assay: RBC HotSpot kinase assay (33P-ATP, P81 filter-binding), AKT; conditions: read-out: AKT IC50
Sequence of AKT (P31749 whole entry): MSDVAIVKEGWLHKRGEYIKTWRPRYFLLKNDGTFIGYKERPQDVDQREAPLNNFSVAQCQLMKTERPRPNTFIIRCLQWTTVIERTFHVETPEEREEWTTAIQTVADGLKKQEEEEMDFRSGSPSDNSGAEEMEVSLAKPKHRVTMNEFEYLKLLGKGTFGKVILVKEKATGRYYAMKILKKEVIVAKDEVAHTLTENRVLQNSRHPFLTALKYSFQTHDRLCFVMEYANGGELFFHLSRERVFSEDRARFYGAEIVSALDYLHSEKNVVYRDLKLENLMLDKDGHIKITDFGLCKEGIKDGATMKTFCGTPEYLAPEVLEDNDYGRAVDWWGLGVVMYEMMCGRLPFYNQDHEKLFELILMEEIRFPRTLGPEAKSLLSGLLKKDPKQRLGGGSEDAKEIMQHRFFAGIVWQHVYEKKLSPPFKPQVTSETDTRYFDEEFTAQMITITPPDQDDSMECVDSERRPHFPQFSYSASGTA
Method in brief: as §1

LATS2 = biological target: T2, LATS2 (Homo sapiens, UniProt Q9NRM7); assay: RBC HotSpot kinase assay (33P-ATP, P81 filter-binding), LATS2; conditions: read-out: LATS2 IC50
T2 sequence (Q9NRM7 1-1088): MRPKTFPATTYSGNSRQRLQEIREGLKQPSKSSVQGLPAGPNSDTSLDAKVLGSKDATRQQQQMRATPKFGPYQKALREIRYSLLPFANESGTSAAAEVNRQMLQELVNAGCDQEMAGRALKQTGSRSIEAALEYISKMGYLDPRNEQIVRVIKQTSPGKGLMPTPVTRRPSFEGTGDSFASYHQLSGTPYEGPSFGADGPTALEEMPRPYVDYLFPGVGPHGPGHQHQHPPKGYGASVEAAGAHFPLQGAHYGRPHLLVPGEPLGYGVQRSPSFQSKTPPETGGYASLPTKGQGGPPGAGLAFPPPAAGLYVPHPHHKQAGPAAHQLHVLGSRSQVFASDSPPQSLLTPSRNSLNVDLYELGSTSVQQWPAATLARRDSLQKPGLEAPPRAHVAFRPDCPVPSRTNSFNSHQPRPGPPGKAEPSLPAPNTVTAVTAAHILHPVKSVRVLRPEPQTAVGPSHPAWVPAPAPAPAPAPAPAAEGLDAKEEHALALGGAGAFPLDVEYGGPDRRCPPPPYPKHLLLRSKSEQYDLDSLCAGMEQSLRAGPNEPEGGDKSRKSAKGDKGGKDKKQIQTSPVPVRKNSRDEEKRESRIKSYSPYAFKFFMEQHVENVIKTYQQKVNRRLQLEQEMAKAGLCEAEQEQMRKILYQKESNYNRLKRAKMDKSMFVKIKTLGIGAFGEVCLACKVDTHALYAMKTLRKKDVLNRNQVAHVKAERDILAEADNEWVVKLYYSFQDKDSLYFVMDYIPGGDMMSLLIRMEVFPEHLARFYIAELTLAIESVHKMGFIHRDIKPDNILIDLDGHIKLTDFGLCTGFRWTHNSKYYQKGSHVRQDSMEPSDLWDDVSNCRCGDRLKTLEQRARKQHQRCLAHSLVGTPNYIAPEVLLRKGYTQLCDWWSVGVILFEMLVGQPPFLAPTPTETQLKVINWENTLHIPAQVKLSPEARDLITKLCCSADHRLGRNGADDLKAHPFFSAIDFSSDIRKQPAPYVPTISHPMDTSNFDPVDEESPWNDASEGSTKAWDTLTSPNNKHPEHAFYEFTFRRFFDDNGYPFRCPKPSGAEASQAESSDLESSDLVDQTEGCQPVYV
Method in brief: as §1

[1] = Table 28, biochemical kinase assay
[2] = Table 32, biochemical kinase assay

Row | IC50 (LATS1; [1]) | IC50 (AKT; [1]) | IC50 (LATS2; [1]) | Compound | other results
1 | 39 nM | 394 nM | 128 nM | NCc1ccc(-c2ccnc3[nH]cc(-c4ccccc4)c23)cc1-c1ccccc1 [Compound 219, (5-(3-phenyl-1H-pyrrolo[2,3-b]pyridin-4-yl)-[1,1′-biphenyl]-2-yl)methanamine] | 
2 | 5.9 nM | 698 nM | 9 nM | Cc1cc(-c2ccnc3[nH]cc(F)c23)cc(F)c1C1(O)CC2(CN(C3COC3)C2)C1 [Compound 139, 6-(2-fluoro-4-(3-fluoro-1H-pyrrolo[2,3-b]pyridin-4-yl)-6-methylphenyl)-2-(oxetan-3-yl)-2-azaspiro[3.3]heptan-6-ol] | 
3 |  |  |  | Cc1cc(-c2ccnc3[nH]cc(C#N)c23)cc(F)c1[C@@]1(O)[C@H](C)CN(C(=O)[C@H](CO)N(C)C)C[C@@H]1C [Compound 2023, 4-(4-((3S,4R,5R)-1-(dimethyl-L-seryl)-4-hydroxy-3,5-dimethylpiperidin-4-yl)-3-fluoro-5-methylphenyl)-1H-pyrrolo[2,3-b]pyridine-3-carbonitrile] | IC50 (LATS1; biochemical kinase inhibition): 4.4 nM; IC50 (AKT; biochemical kinase inhibition): 388 nM; IC50 (LATS2; biochemical kinase inhibition): 2.9 nM
4 | 1.1 nM | 505 nM | 4.1 nM | C[C@@H]1CN(C)C[C@H](C)[C@@]1(O)c1cnc(-c2ccnc3[nH]cc(F)c23)cc1Cl [Compound 22, (3S,4s,5R)-4-(4-chloro-6-(3-fluoro-1H-pyrrolo[2,3-b]pyridin-4-yl)pyridin-3-yl)-1,3,5-trimethylpiperidin-4-ol] | 
5 |  |  |  | NCC(=O)NCC(O)(c1ccc(Cl)cc1)c1ccc(-c2ccnc3[nH]cc(Cl)c23)cc1 (stereo not drawn) [Compound 1021, 2-amino-N-(2-(4-(3-chloro-1H-pyrrolo[2,3-b]pyridin-4-yl)phenyl)-2-(4-chlorophenyl)-2-hydroxyethyl) acetamide] | IC50 (LATS1; [2]): 3.7 nM; IC50 (AKT; [2]): < 0.5 nM; IC50 (LATS2; [2]): 1.6 nM
6 | 7.8 nM | 1350 nM | 4.4 nM | O=C([C@H]1CCCN1)N1CCC(O)(c2ccc(-c3ccnc4[nH]cc(F)c34)cc2)CC1 [Compound 142] | 
7 | 6 nM | 249 nM | 5 nM | Cc1cc(-c2ccnc3[nH]ccc23)ccc1CN [Compound 266, (2-methyl-4-(1H-pyrrolo[2,3-b]pyridin-4-yl)phenyl) methanamine] | 
8 | 6.7 nM | 129 nM | 6.3 nM | C[C@@H]1CN(C2CCS(=O)(=O)CC2)C[C@H](C)C1(O)c1c(F)cc(-c2ccnc3[nH]cc(F)c23)cc1F (stereo partly drawn) [Compound 31, 4-((3S,5R)-4-(2,6-difluoro-4-(3-fluoro-1H-pyrrolo[2,3-b]pyridin-4-yl)phenyl)-4-hydroxy-3,5-dimethylpiperidin-1-yl)tetrahydro-2H-thiopyran 1,1-dioxide] | 
9 |  |  |  | NCC(O)(c1ccc(Cl)cc1)c1ccc(-c2ccnc3[nH]ccc23)cc1 (stereo not drawn) [Compound 1001, 1-(4-(1H-pyrrolo[2,3-b]pyridin-4-yl)phenyl)-2-amino-1-(4-chlorophenyl)ethan-1-ol] | IC50 (LATS1; [2]): 1.8 nM; IC50 (AKT; [2]): 0.6 nM; IC50 (LATS2; [2]): 2.1 nM
10 | 11 nM | 308 nM | 10 nM | c1cc(-c2ccc3c(c2)CCNC3)c2cc[nH]c2n1 [Compound 267, 6-(1H-pyrrolo[2,3-b]pyridin-4-yl)-1,2,3,4-tetrahydroiso-quinoline] | 
11 | 2.5 nM | 51 nM | 2.3 nM | Cc1cc(-c2ccnc3[nH]cc(F)c23)ccc1[C@@]1(O)[C@H](C)CN(C2CCC2)C[C@@H]1C [Compound 54, (3R,4s,5S)-1-cyclobutyl-4-(4-(3-fluoro-1H-pyrrolo[2,3-b]pyridin-4-yl)-2-methylphenyl)-3,5-dimethylpiperidin-4-ol] | 
12 | 66.1 nM | 1440 nM | 62.6 nM | CC1CC(c2ccc(-c3ccnc4[nH]ccc34)cc2)CC(C)N1 (stereo not drawn) [Compound 187, 4-(4-(2,6-dimethylpiperidin-4-yl)phenyl)-1H-pyrrolo[2,3-b]pyridine] | 
13 |  |  |  | Cc1cc(-c2ccnc3[nH]cc(C#N)c23)cc(F)c1[C@@]1(O)[C@H](C)CN(C2CCS(=O)(=O)CC2)C[C@@H]1C [Compound 2002, 4-(4-((3S,4s,5R)-1-(1,1-dioxidotetrahydro-2H-thiopyran-4-yl)-4-hydroxy-3,5-dimethylpiperidin-4-yl)-3-fluoro-5-methylphenyl)-1H-pyrrolo[2,3-b]pyridine-3-carbonitrile] | IC50 (LATS1; biochemical kinase inhibition): 10.9 nM; IC50 (AKT; biochemical kinase inhibition): 188 nM; IC50 (LATS2; biochemical kinase inhibition): 4.6 nM
14 | 53 nM | 3330 nM | 203 nM | C[C@@H]1CNC[C@H](C)[C@@]1(O)c1ccc(-c2ccnc3[nH]cc(F)c23)nc1 [Compound 8, (3S,4s,5R)-4-(6-(3-fluoro-1H-pyrrolo[2,3-b]pyridin-4-yl)pyridin-3-yl)-3,5-dimethylpiperidin-4-ol] | 
15 | 5.1 nM | 4420 nM | 2.3 nM | COC(=O)c1c[nH]c2nccc(-c3cc(C)c([C@@]4(O)[C@H](C)CN(C(=O)CN)C[C@@H]4C)c(F)c3)c12 [Compound 310, methyl 4-(3-fluoro-4-((3S,4s,5R)-1-glycyl-4-hydroxy-3,5-dimethylpiperidin-4-yl)-5-methylphenyl)-1H-pyrrolo[2,3-b]pyridine-3-carboxylate] | 
16 |  |  |  | CNCC(=O)N1C[C@@H](C)[C@](O)(c2c(C)cc(-c3ccnc4[nH]cc(C#N)c34)cc2F)[C@@H](C)C1 [Compound 2012, 4-(3-fluoro-4-((3S,4s,5R)-4-hydroxy-3,5-dimethyl-1-(methylglycyl)piperidin-4-yl)-5-methylphenyl)-1H-pyrrolo[2,3-b]pyridine-3-carbonitrile] | IC50 (LATS1; biochemical kinase inhibition): 5 nM; IC50 (AKT; biochemical kinase inhibition): 349 nM; IC50 (LATS2; biochemical kinase inhibition): 2.9 nM

Row | Compound | IC50 (LATS1; [1]) | IC50 (AKT; [1]) | IC50 (LATS2; [1]) | other results
17 | Cc1cc(-c2ccnc3[nH]cc(F)c23)cc(F)c1[C@@]1(O)[C@H](C)CN(C(=O)CN)C[C@@H]1C [Compound 61, 2-amino-1-((3R,4s,5S)-4-(2-fluoro-4-(3-fluoro-1H-pyrrolo[2,3-b]pyridin-4-yl)-6-methylphenyl)-4-hydroxy-3,5-dimethylpiperidin-1-yl)ethan-1-one] | 3.2 nM | 197 nM | 3.2 nM | 
